Series [1] concerns A. baumannii laboratory strains (ATCC strains 17,978 and 19,606). Type of series: cell-based, Acinetobacter baumannii. As to conditions: disc diffusion; activity = inhibition zone diameter ≥ 10 mm.
Experimental: The antimicrobial activities of 58 AMPs were screened against A. baumannii laboratory strains (ATCC strains 17,978 and 19,606) in vitro using a disc diffusion assay (Supplementary Table 1).
The antimicrobial activity against Acinetobacter baumannii were determined by a inhibition zone
assay, performed as previous described1. The AMPs with an inhibition zone diameter ≥ 10 mm were
determined as the AMPs with antimicrobial activity.
Another series in a line: LD50 (preliminary data). As to conditions: intratracheal administration. Type of series: in vivo.
Series [2] relates to MDRAB clinical strain J49. It is filed as cell-based, Acinetobacter baumannii.
The test system of series [3] is MDRAB clinical strain AK29. It is filed as cell-based, Acinetobacter baumannii.
Experimental: (§1) MBC were determined by extending the MIC procedure in sterilized 96-well polypropylene microtiter plates according to the broth microdilution guidelines of the Clinical and Laboratory Standards Institute with some modification[47]. […] In addition, 10 µL was drawn from each well with no visible turbidity onto LB agar plates and incubated for 24 h at 37 °C. The lowest concentration showing no visible growth on agar subculture was used as the MBC value. All experiments were performed in triplicate.
For series [4], the system named is MDRAB clinical strain Y92. It is filed as cell-based, Acinetobacter baumannii.
Experimental: as §1
In series [5] the test system is MDRAB clinical strain D29. It is filed as cell-based, Acinetobacter baumannii.
Series [6] has as its system MDRAB clinical strain AZ93. It is filed as cell-based, Acinetobacter baumannii.
Series [7] concerns MDRAB clinical strain U95. It is filed as cell-based, Acinetobacter baumannii.
For series [8], the system named is MDRAB clinical strain AF93. Type of series: cell-based, Acinetobacter baumannii.
Experimental: as §1
Series [9] deals with Acinetobacter baumannii 19,606. Type of series: cell-based.
Experimental: as §1
Series [10] concerns Acinetobacter baumannii 17,978. It is filed as cell-based.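 Further: CLSI broth microdilution in 96-well polypropylene plates, MBC taken as lowest concentration giving no growth when clear wells were subcultured on LB agar for 24 h at 37 °C.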
Experimental: as §1
Series [11] has as its system MDRAB clinical strain W11. Type of series: cell-based, Acinetobacter baumannii.
In series [12] the test system is MDRAB clinical strain AF11. It is filed as cell-based, Acinetobacter baumannii.
Experimental: as §1
Series [13] concerns MDRAB clinical strain AE5. Type of series: cell-based, Acinetobacter baumannii.
Experimental: as §1
For series [14], the system named is MDRAB clinical strain AO80. Type of series: cell-based, Acinetobacter baumannii.
Series [15] concerns MDRAB clinical strain AS40. Type of series: cell-based, Acinetobacter baumannii.
Experimental: as §1
Series [16] has as its system MDRAB clinical strain AE6. It is filed as cell-based, Acinetobacter baumannii.
In series [17] the test system is MDRAB clinical strain AL87. Type of series: cell-based, Acinetobacter baumannii.
For series [18], the system named is MDRAB clinical strain AF12. Type of series: cell-based, Acinetobacter baumannii.
Experimental: as §1
The subject of series [19] is MDRAB clinical strain L87. It is filed as cell-based, Acinetobacter baumannii.
Experimental: as §1
The subject of series [20] is MDRAB clinical strain U80. It is filed as cell-based, Acinetobacter baumannii.
Experimental: as §1
A further series relates to MDRAB clinical strains. It is filed as cell-based, Acinetobacter baumannii.
Series [21] has as its system MDRAB clinical strain AK61. Type of series: cell-based, Acinetobacter baumannii.
Series [22] has as its system MDRAB clinical strain O59. Type of series: cell-based, Acinetobacter baumannii.
The next series has as its system MDRAB clinical strain K2. Type of series: cell-based, Acinetobacter baumannii.
In series [23] the test system is MDRAB clinical strain AN10. It is filed as cell-based, Acinetobacter baumannii.
Series [24] deals with MDRAB clinical strain AG51. It is filed as cell-based, Acinetobacter baumannii.
Experimental: as §1
Setting [25] is: 10 µL from wells without turbidity onto LB agar, 24 h at 37 °C, triplicate.

Where two headings read alike, the source gives them in different places. No end group written: not given here.

For the substance “AKKVFKRLG IGKFLHSAKKF-NH2 [HPMA, antimicrobial peptide]”, the “antimicrobial activity against Acinetobacter baumannii (inhibition zone assay)” value (“antimicrobial activity … (inhibition zone assay)” below) in series [1] is “without antimicrobial activity (The antimicrobial peptides without antimicrobial activity)”.
On the same count and under the same terms, then “AKKVFKRLGIGAVLKVLTTG [HPME, antimicrobial peptide]”, with “without antimicrobial activity (The antimicrobial peptides without antimicrobial activity)”.
Usually LD50 stands for the dose at which mortality reaches 50%. Low values mean a more toxic substance, high ones a less toxic substance. The substance FIHHIIGGLFSAGKAIHRLIRRRRR [TP4] displayed an LD50 in the series “LD50 (preliminary data)” of 10 to 20 mg/kg.
As to “GLLRKGGEKIGEKLKKIGQKIKNFFQKLVPQPEQ [CRAMP, antimicrobial peptide]”, the “antimicrobial activity … (inhibition zone assay)” value in series [1] is listed as “without antimicrobial activity (The antimicrobial peptides without antimicrobial activity)”.
Usually MBC stands for the lowest tested concentration that kills the bacteria rather than only halting them. Low values mean more potent killing, high ones less potent killing. As a reminder, the MIC is the lowest concentration found to suppress growth. Low readings indicate a more susceptible organism, high ones a less susceptible organism. Consider GYNYAKKLANLAKKFANALW-NH2 [GW-H1a], for which the MBC in series [2] (24 h) stood at 8 µg/mL; in series [3] (24 h) it was 8 µg/mL; in series [4] (24 h) it was 8 µg/mL; in series [5] (24 h), 32 µg/mL; in series [6] (24 h), 8 µg/mL; in series [7] (24 h), 32 µg/mL. Further, the MBC came to 8 µg/mL in series [8] (24 h); 16 µg/mL in series [9] (19,606, 24 h); 32 µg/mL in [10] (17,978, 24 h); 16 µg/mL in [11] (24 h); 16 µg/mL in [12] (24 h); 16 µg/mL in series [13] (24 h). Moreover, the MBC in series [14] (24 h) turned out to be 8 µg/mL; in [15] (24 h) it was 8 µg/mL; in [16] (24 h) it was 16 µg/mL; in series [17] (24 h), 8 µg/mL; in series [18] (24 h), 16 µg/mL; in [19] (24 h), 32 µg/mL. The MBC in [20] (24 h) is 32 µg/mL; in the series on MDRAB clinical strains (24 h) it was 8 to 32 µg/mL; in [21] (24 h), 8 µg/mL; in [22] (24 h), 32 µg/mL; in the series on MDRAB clinical strain K2 (24 h), 16 µg/mL; in series [23] (24 h), 8 µg/mL. Moreover, in [24] (24 h), the MBC was determined as 8 µg/mL. In addition, the MIC in series [2] (24 h) was determined as 8 µg/mL; in series [3] (24 h), 8 µg/mL; in [4] (24 h), 8 µg/mL; in [5] (24 h), 16 µg/mL; in series [6] (24 h), 8 µg/mL; in [7] (24 h), 16 µg/mL. The MIC was determined as 8 µg/mL in [8] (24 h); 16 µg/mL in series [9] (19,606, 24 h); 32 µg/mL in series [10] (17,978, 24 h); 16 µg/mL in series [11] (24 h); 8 µg/mL in [12] (24 h); 16 µg/mL in series [13] (24 h). For the same substance, the MIC in series [14] (24 h) was determined as 8 µg/mL; in series [15] (24 h) it was 8 µg/mL; in series [16] (24 h) it was 8 µg/mL; in series [17] (24 h), 8 µg/mL; in series [18] (24 h), 8 µg/mL; in series [19] (24 h) it was 16 µg/mL. For the same substance, the MIC in [20] (24 h) was 16 µg/mL; in the series on MDRAB clinical strains (24 h), 8 to 16 µg/mL; in series [21] (24 h) it was 8 µg/mL; in series [22] (24 h), 16 µg/mL; against MDRAB clinical strain K2 (24 h), 16 µg/mL; in [23] (24 h) it was 8 µg/mL. In series [24] (24 h), this substance returned an MIC of 8 µg/mL.
As for ILGPVLSMVGSALGGLIKKI-NH2 [Maximin H2], the MIC is 16 µg/mL in series [2] (strain J49, broth microdilution, LB, 24 h 37 °C); 32 µg/mL in series [3] (strain AK29, broth microdilution, LB, 24 h 37 °C); 64 µg/mL in [4] (strain Y92, broth microdilution, LB, 24 h 37 °C); 128 µg/mL in [5] (strain D29, broth microdilution, LB, 24 h 37 °C); 64 µg/mL in series [6] (strain AZ93, broth microdilution, LB, 24 h 37 °C); 128 µg/mL in [7] (strain U95, broth microdilution, LB, 24 h 37 °C). Moreover, the MIC was 64 µg/mL in [8] (strain AF93, broth microdilution, LB, 24 h 37 °C); 32 µg/mL in series [9] (broth microdilution (CLSI, modified), LB medium, 5 × 10^5 CFU/mL, 24 h at 37 °C, triplicate); 64 µg/mL in series [10] (broth microdilution (CLSI, modified), LB medium, 5 × 10^5 CFU/mL, 24 h at 37 °C, lowest concentration with no visible growth, triplicate); 64 µg/mL in [11] (strain W11, broth microdilution, LB, 24 h 37 °C); 128 µg/mL in series [12] (strain AF11, broth microdilution, LB, 24 h 37 °C); 64 µg/mL in series [13] (strain AE5, broth microdilution, LB, 24 h 37 °C). For the same substance, the MIC in series [14] (strain AO80, broth microdilution, LB, 24 h 37 °C) is 64 µg/mL; in [15] (strain AS40, broth microdilution, LB, 24 h 37 °C), 64 µg/mL; in series [16] (strain AE6, broth microdilution, LB, 24 h 37 °C) it was 128 µg/mL; in series [17] (strain AL87, broth microdilution, LB, 24 h 37 °C), 64 µg/mL; in series [18] (strain AF12, broth microdilution, LB, 24 h 37 °C), 64 µg/mL; in series [19] (strain L87, broth microdilution, LB, 24 h 37 °C) it was 128 µg/mL. The MIC in series [20] (strain U80, broth microdilution, LB, 24 h 37 °C) is 128 µg/mL; against MDRAB clinical strains (range over MDRAB clinical strains (details in Supplementary Table 2), broth microdilution, LB, 24 h 37 °C) it was 16 to 128 µg/mL; in [21] (strain AK61, broth microdilution, LB, 24 h 37 °C), 64 µg/mL; in series [22] (strain O59, broth microdilution, LB, 24 h 37 °C) it was 128 µg/mL; in the series on MDRAB clinical strain K2 (strain K2, broth microdilution, LB, 24 h 37 °C), 16 µg/mL; in series [23] (strain AN10, broth microdilution, LB, 24 h 37 °C), 64 µg/mL. Further, the MIC in series [24] (strain AG51, broth microdilution, LB, 24 h 37 °C) was 32 µg/mL. For the same substance, the MBC in series [2] (strain J49, subculture on LB agar, 24 h 37 °C) was found to be 16 µg/mL; in [3] (strain AK29, subculture on LB agar, 24 h 37 °C), 32 µg/mL; in series [4] (strain Y92, subculture on LB agar, 24 h 37 °C), 128 µg/mL; in [5] (strain D29, subculture on LB agar, 24 h 37 °C) it was 128 µg/mL; in series [6] (strain AZ93, subculture on LB agar, 24 h 37 °C), 64 µg/mL; in series [7] (strain U95, subculture on LB agar, 24 h 37 °C), 128 µg/mL. Also, the MBC in series [8] (strain AF93, subculture on LB agar, 24 h 37 °C) worked out at 64 µg/mL; in [9] (setting [25]) it was 32 µg/mL; in [10] (setting [25]) it was 128 µg/mL; in series [11] (strain W11, subculture on LB agar, 24 h 37 °C), 128 µg/mL; in [12] (strain AF11, subculture on LB agar, 24 h 37 °C) it was 128 µg/mL; in series [13] (strain AE5, subculture on LB agar, 24 h 37 °C), 128 µg/mL. Also, the MBC came out at 128 µg/mL in series [14] (strain AO80, subculture on LB agar, 24 h 37 °C); 64 µg/mL in series [15] (strain AS40, subculture on LB agar, 24 h 37 °C); 128 µg/mL in series [16] (strain AE6, subculture on LB agar, 24 h 37 °C); 64 µg/mL in series [17] (strain AL87, subculture on LB agar, 24 h 37 °C); 64 µg/mL in [18] (strain AF12, subculture on LB agar, 24 h 37 °C); 128 µg/mL in series [19] (strain L87, subculture on LB agar, 24 h 37 °C). In addition, the MBC in [20] (strain U80, subculture on LB agar, 24 h 37 °C) was 128 µg/mL; with MDRAB clinical strains (range over MDRAB clinical strains (details in Supplementary Table 2), subculture on LB agar, 24 h 37 °C) it was 16 to 128 µg/mL; in series [21] (strain AK61, subculture on LB agar, 24 h 37 °C), 64 µg/mL; in [22] (strain O59, subculture on LB agar, 24 h 37 °C) it was 128 µg/mL; in the series on MDRAB clinical strain K2 (strain K2, subculture on LB agar, 24 h 37 °C), 32 µg/mL; in series [23] (strain AN10, subculture on LB agar, 24 h 37 °C), 64 µg/mL. This substance came in with an MBC in series [24] (strain AG51, subculture on LB agar, 24 h 37 °C) of 64 µg/mL.
In the case of “KQFRIRVRV [Peptide 1029, antimicrobial peptide]”, in series [1], the “antimicrobial activity … (inhibition zone assay)” value is recorded as “without antimicrobial activity (The antimicrobial peptides without antimicrobial activity)”.
The same measure, in the same setting: with “KRFRIRVRV [Peptide 1037, antimicrobial peptide]” the entry was “without antimicrobial activity (The antimicrobial peptides without antimicrobial activity)”.

For the origin of these results see publication PMC8016998, “Identification of potential therapeutic antimicrobial peptides against Acinetobacter baumannii in a mouse model of pneumonia” (Scientific Reports, 2021).
